molecular target: Epidermal growth factor receptor (Homo sapiens, UniProt P00533); experiment: Inhibition of EGFR (unknown origin)
Sequence (P00533 whole entry): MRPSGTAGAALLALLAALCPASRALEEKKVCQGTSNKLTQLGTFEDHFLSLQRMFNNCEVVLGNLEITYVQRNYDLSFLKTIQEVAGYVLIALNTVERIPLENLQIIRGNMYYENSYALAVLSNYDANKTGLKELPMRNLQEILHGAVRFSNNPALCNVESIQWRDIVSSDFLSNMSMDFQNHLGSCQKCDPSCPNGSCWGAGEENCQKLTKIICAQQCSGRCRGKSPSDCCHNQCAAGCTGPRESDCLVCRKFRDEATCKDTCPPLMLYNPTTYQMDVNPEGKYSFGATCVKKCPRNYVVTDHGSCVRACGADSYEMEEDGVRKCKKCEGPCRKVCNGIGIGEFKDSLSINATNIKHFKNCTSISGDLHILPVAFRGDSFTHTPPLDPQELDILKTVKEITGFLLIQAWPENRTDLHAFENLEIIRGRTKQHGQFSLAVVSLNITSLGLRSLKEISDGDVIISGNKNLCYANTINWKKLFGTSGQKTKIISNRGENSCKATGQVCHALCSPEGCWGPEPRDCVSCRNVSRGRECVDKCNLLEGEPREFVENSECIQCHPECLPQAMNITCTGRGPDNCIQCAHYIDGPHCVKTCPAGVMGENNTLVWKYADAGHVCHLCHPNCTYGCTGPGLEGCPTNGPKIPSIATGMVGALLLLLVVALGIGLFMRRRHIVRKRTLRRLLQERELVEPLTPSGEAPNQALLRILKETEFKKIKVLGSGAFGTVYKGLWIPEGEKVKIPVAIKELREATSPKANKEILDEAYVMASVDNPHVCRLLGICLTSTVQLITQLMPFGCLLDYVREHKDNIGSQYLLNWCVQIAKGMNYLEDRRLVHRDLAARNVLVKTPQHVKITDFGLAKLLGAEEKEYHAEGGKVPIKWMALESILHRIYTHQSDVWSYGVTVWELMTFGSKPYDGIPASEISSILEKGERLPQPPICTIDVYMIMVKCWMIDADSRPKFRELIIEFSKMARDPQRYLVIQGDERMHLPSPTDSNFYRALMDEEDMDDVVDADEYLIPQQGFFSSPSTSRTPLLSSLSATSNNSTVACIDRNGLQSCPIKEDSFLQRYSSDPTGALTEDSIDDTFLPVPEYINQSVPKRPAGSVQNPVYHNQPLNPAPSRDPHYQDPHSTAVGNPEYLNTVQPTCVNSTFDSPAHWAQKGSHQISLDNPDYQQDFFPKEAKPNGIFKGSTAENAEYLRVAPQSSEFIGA

IC50 [µM] | Structure (SMILES)
21.1 | N=C1NC(=O)/C(=C2/CCNC(=O)c3[nH]c(Br)c(Br)c32)N1
18.5 | N=C1NC(=O)/C(=C2/CCNC(=O)c3[nH]cc(Br)c32)N1
10.6 | COc1ccc(Cc2nc(-c3cc(Br)c(OCCCN(C)C)c(Br)c3)c[nH]c2=O)cc1Br [Ma'edamine A]
37.9 | N=C1N=C(NCCS(=O)(=O)O)/C(=C/C(O)CNC(=O)c2cc(Br)c(Br)[nH]2)N1 (centres undefined) [TAUROACIDIN A]
